Where two headings read alike, the source gives them in different places.
Experiments:
[1] = target: T1, RORγ ligand binding domain (LBD) (Homo sapiens, UniProt P51449); assay: TR-FRET Activity Assay (ligand sensing, RORγ-LBD / coactivator peptide interaction, LANCE); type: biochemical
T1 construct: made in house; host or cells: E. coli BL-21 (BL3), vector pDEST15
T1 sequence (P51449 269-508 limits assumed): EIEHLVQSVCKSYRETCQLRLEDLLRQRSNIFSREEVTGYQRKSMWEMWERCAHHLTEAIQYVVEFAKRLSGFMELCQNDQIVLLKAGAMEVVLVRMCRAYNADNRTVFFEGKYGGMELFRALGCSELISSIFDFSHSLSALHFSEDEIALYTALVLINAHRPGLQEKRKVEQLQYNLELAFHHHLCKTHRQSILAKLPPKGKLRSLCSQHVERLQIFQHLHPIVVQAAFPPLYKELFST

RORγ = target: T2, RORγ (UniProt P51449); assay: RORγ Gal4 Reporter Gene Assay in 293T cells (firefly and renilla luciferase); type: cell-based, human
T2 sequence (P51449 1-518): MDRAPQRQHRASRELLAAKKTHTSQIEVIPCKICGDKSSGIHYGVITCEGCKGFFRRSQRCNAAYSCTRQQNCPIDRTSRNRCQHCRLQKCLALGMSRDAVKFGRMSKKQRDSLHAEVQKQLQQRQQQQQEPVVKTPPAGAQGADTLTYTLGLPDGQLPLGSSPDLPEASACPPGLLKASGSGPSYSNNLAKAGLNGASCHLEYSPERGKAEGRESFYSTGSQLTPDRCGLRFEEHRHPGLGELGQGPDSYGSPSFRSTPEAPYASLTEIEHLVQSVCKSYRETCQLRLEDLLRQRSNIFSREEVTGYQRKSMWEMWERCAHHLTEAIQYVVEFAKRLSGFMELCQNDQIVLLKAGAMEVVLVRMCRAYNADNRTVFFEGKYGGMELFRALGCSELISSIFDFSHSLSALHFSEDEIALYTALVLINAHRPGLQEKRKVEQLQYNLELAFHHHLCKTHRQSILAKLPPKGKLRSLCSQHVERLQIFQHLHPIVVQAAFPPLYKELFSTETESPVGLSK

[2] = first value of the cell FRET/FF/REN, TR-FRET activity assay, read-out: pIC50 (FRET) (converted)
[3] = second value of the cell, Gal4 reporter gene assay in 293T cells, firefly luciferase
[4] = third value of the cell, Gal4 reporter gene assay in 293T cells, renilla normalised luciferase

IC50 [1, 2] | pIC50 (FF) (RORγ; [3]) | pIC50 (REN) (RORγ; [4]) | SMILES | IC50 [1] | pIC50 (FF) (RORγ) | pIC50 (REN) (RORγ)
1000 nM | 7.1 | 7.1 | Cc1c(C(=O)NC2CCOCC2)cc(-c2cc(C(C)(C)O)cc(C3(C)CC3)c2)n1CC1CCCCC1 [1/43] | – | – | –
– | – | – | COC(C)(C)c1cc(-c2cc(C(=O)NC3CCOCC3)c(C)n2CC2CCCCC2)cc(C2(C)CC2)c1 [1/44] | 501 nM | 6.3/7.4/7.3 | 6.3/7.4/7.3
1000 nM | 5.6 | 5.8 | Cc1c(C(N)=O)cc(-c2ccc(C(O)(C(F)(F)F)C(F)(F)F)cc2)n1CC1CCCCC1 [1/45] | – | – | –
– | – | – | COCCNC(=O)c1cc(-c2cc(C(C)(C)C)c(O)c(C(C)(C)C)c2)n(CC2CCCCC2)c1C [1/46] | 316 nM | 6.5/6.5/6.5 | 6.5/6.5/6.5
3980 nM | < 4.7 | < 4.7 | Cc1c(C(N)=O)cc(-c2cccc(C(O)(C(F)(F)F)C(F)(F)F)c2)n1CC1CCCCC1 [1/47] | – | – | –
631 nM | 6.4 | 6.4 | Cc1c(C(=O)NCC(F)(F)F)cc(-c2cc(C(C)(C)C)c(O)c(C(C)(C)C)c2)n1CC1CCCCC1 [1/48] | – | – | –
31600 nM | 6.2 | 6.6 | Cc1noc2ccc(-c3cc(C(N)=O)c(C)n3CC3CCCCC3)cc12 [1/49] | – | – | –
2510 nM | 5.9 | 6.1 | Cc1c(C(=O)NS(C)(=O)=O)cc(-c2cc(C(C)(C)C)cc(C(C)(C)C)c2)n1CC1CCCCC1 [1/51] | – | – | –
– | – | – | Cc1c(C(=O)NC2COC2)cc(-c2cc(C(C)(C)C)cc(C(C)(C)C)c2)n1CC1CCCCC1 [1/53] | 158 nM | 6.8/7.3/7.4 | 6.8/7.3/7.4
– | – | – | Cc1c(C(=O)NCCO)cc(-c2cc(C(C)(C)C)cc(C(C)(C)C)c2)n1CC1CCCCC1 [1/54] | 398 nM | 6.4/6.3/6.4 | 6.4/6.3/6.4
– | – | – | Cc1c(C(=O)NCCN(C)C)cc(-c2cc(C(C)(C)C)cc(C(C)(C)C)c2)n1CC1CCCCC1 [1/56] | 3160 nM | 5.5/<4.7/<4.7 | 5.5/<4.7/<4.7
– | – | – | Cc1c(C(=O)NC2(CO)CC2)cc(-c2cc(C(C)(C)C)cc(C(C)(C)C)c2)n1CC1CCCCC1 [1/58] | 631 nM | 6.2/6.2/6.2 | 6.2/6.2/6.2
631 nM | 6.3 | 6.3 | Cc1c(C(=O)NC[C@@H](C)O)cc(-c2cc(C(C)(C)C)cc(C(C)(C)C)c2)n1CC1CCCCC1 [1/59] | – | – | –
1000 nM | 6.2 | 6.2 | Cc1c(C(=O)NC[C@H](C)O)cc(-c2cc(C(C)(C)C)cc(C(C)(C)C)c2)n1CC1CCCCC1 [1/60] | – | – | –
– | – | – | Cc1c(C(=O)NCCOC(C)C)cc(-c2cc(C(C)(C)C)cc(C(C)(C)C)c2)n1CC1CCCCC1 [1/62] | 316 nM | 6.5/6.4/6.3 | 6.5/6.4/6.3
– | – | – | Cc1c(C(=O)NCCOCCO)cc(-c2cc(C(C)(C)C)cc(C(C)(C)C)c2)n1CC1CCCCC1 [1/63] | 631 nM | 6.2/6.7/6.7 | 6.2/6.7/6.7
398 nM | 6.6 | 6.6 | Cc1c(C(=O)NCCCO)cc(-c2cc(C(C)(C)C)cc(C(C)(C)C)c2)n1CC1CCCCC1 [1/65] | – | – | –

IC50 [1, 2] | pIC50 (FF) (RORγ; [3]) | pIC50 (REN) (RORγ; [4]) | SMILES | IC50 [1] | pIC50 (FF) (RORγ) | pIC50 (REN) (RORγ)
398 nM | 6.7 | 6.8 | Cc1c(C(=O)NCCCCO)cc(-c2cc(C(C)(C)C)cc(C(C)(C)C)c2)n1CC1CCCCC1 [1/66] | – | – | –
1580 nM | 6.7 | 6.8 | Cc1c(C(=O)NCCC(=O)O)cc(-c2cc(C(C)(C)C)cc(C(C)(C)C)c2)n1CC1CCCCC1 [1/68] | – | – | –
1580 nM | 6.8 | 6.9 | Cc1c(C(=O)NCCCC(=O)O)cc(-c2cc(C(C)(C)C)cc(C(C)(C)C)c2)n1CC1CCCCC1 [1/69] | – | – | –
– | – | – | Cc1c(C(=O)NCCN2CCOCC2)cc(-c2cc(C(C)(C)C)cc(C(C)(C)C)c2)n1CC1CCCCC1 [1/70] | 631 nM | 6.2/6.6/6.6 | 6.2/6.6/6.6
1000 nM | 7.1 | 7.1 | Cc1c(C(=O)NCCCCCC(=O)O)cc(-c2cc(C(C)(C)C)cc(C(C)(C)C)c2)n1CC1CCCCC1 [1/72] | – | – | –
1260 nM | 7.2 | 7.2 | Cc1c(C(=O)NCCCCC(=O)O)cc(-c2cc(C(C)(C)C)cc(C(C)(C)C)c2)n1CC1CCCCC1 [1/73] | – | – | –
– | – | – | Cc1c(C(=O)NCCCCN2CCOCC2)cc(-c2cc(C(C)(C)C)cc(C(C)(C)C)c2)n1CC1CCCCC1 [1/74] | 5010 nM | 5.3/<4.7/<4.7 | 5.3/<4.7/<4.7
– | – | – | Cc1c(C(=O)NCCCCCN2CCOCC2)cc(-c2cc(C(C)(C)C)cc(C(C)(C)C)c2)n1CC1CCCCC1 [1/75] | 4900 nM | 5.31/<4.7<4.7 | 5.31/<4.7<4.7
– | – | – | Cc1c(C(=O)NC2COC2)cc(-c2cc(C(C)(C)C)cc(C(F)(F)F)c2)n1CC1CCCCC1 [1/78] | 316 nM | 6.5/7.1/7.1 | 6.5/7.1/7.1
200 nM | 7.5 | 7.5 | Cc1c(C(=O)NC2COC2)cc(-c2cc(C3(C)CC3)cc(C3(C)CC3)c2)n1CC1CCCCC1 [1/80] | – | – | –
200 nM | 7.4 | 7.4 | Cc1c(C(=O)NC2COC2)cc(-c2cc(C(C)(C)C)cc(C3(C)CC3)c2)n1CC1CCCCC1 [1/81] | – | – | –
– | – | – | Cc1c(C(=O)NCCCCCO)cc(-c2cc(C(C)(C)C)cc(C3(C)CC3)c2)n1CC1CCCCC1 [1/82] | 158 nM | 6.8/7.4/7.4 | 6.8/7.4/7.4
– | – | – | Cc1c(C(=O)NC2CCOCC2)cc(-c2cc(C(C)(C)C)cc(C3(C)CC3)c2)n1CC1CCCCC1 [1/84] | 158 nM | 6.8/7.6/7.6 | 6.8/7.6/7.6
– | – | – | Cc1c(C(=O)NCC(C)(C)O)cc(-c2cc(C(C)(C)C)cc(C3(C)CC3)c2)n1CC1CCCCC1 [1/87] | 316 nM | 6.5/7.2/7.2 | 6.5/7.2/7.2
– | – | – | Cc1c(C(=O)NCCN2CCOCC2)cc(-c2cc(C(C)(C)C)cc(C3(C)CC3)c2)n1CC1CCCCC1 [1/88] | 398 nM | 6.4/6.5/6.5 | 6.4/6.5/6.5
2000 nM | 7.0 | 6.9 | Cc1c(C(=O)NCCC(=O)O)cc(-c2cc(C(C)(C)C)c3c(c2)C2(CCO3)CC2)n1CC1CCCCC1 [1/90] | – | – | –

SMILES | IC50 [1, 2] | pIC50 (FF) (RORγ; [3]) | pIC50 (REN) (RORγ; [4]) | IC50 [1] | pIC50 (FF) (RORγ) | pIC50 (REN) (RORγ)
CCc1cc(-c2cc(C(N)=O)c(C)n2CC2CCCCC2)cc2c1OCC2(C)C [1/50] | 1580 nM | 6.0 | 6.1 | – | – | –
Cc1c(C(=O)N2CCOCC2)cc(-c2cc(C(C)(C)C)cc(C(C)(C)C)c2)n1CC1CCCCC1 [1/52] | 158 nM | 6.4 | 6.5 | – | – | –
Cc1c(C(=O)NCC(=O)O)cc(-c2cc(C(C)(C)C)cc(C(C)(C)C)c2)n1CC1CCCCC1 [1/57] | 2510 nM | 5.8 | 5.8 | – | – | –
COCCNC(=O)c1cc(-c2cc(C(C)(C)C)cc(C(C)(C)C)c2)n(CC2CCCCC2)c1C [1/64] | 316 nM | 6.5/6.5/6.5 | 6.5/6.5/6.5 | – | – | –
Cc1c(C(=O)NCCCCCO)cc(-c2cc(C(C)(C)C)cc(C(C)(C)C)c2)n1CC1CCCCC1 [1/67] | 158 nM | 7.2 | 7.3 | – | – | –
Cc1c(C(=O)NCCCN2CCOCC2)cc(-c2cc(C(C)(C)C)cc(C(C)(C)C)c2)n1CC1CCCCC1 [1/71] | 1260 nM | 5.8 | 5.9 | – | – | –
Cc1c(C(=O)NC2COC2)cc(-c2cc(C(C)(C)C)c(F)c(C(C)(C)C)c2)n1CC1CCCCC1 [1/77] | 200 nM | 6.9 | 7.0 | – | – | –
Cc1c(C(=O)NC2COC2)cc(-c2cc(C(F)(F)F)cc(C3(C)CC3)c2)n1CC1CCCCC1 [1/79] | 398 nM | 7.2 | 7.2 | – | – | –
Cc1c(C(=O)NC2CC2)cc(-c2cc(C(C)(C)C)cc(C3(C)CC3)c2)n1CC1CCCCC1 [1/83] | 316 nM | 6.9 | 7.0 | – | – | –
Cc1c(C(=O)NCC(C)(C)C(N)=O)cc(-c2cc(C(C)(C)C)cc(C3(C)CC3)c2)n1CC1CCCCC1 [1/85] | 316 nM | 7.7 | 7.7 | – | – | –
Cc1c(C(=O)NCC2(C)COC2)cc(-c2cc(C(C)(C)C)cc(C3(C)CC3)c2)n1CC1CCCCC1 [1/86] | 158 nM | 7.6 | 7.6 | – | – | –
Cc1c(C(N)=O)cc(-c2cc(C(C)(C)C)cc(C3(C)CC3)c2)n1CC1CCCCC1 [1/89] | 251 nM | 6.3 | 6.2 | – | – | –
